# Test results taken from PMC6736837, “^18F-labelled triazolyl-linked argininamides targeting the neuropeptide Y Y1R for PET imaging of mammary carcinoma” (Scientific Reports, 2019).
# Entries after “also recorded” stand apart in the source; their conditions may differ.
# How the values were obtained:
# [1] = Radiotracer stability in human serum by radio-HPLC; assay type: in vitro ADME; settings: 37 °C
# Experimental: The stability of ^18F-labelled compounds was determined in human serum. An aliquot of the radiotracer (5–10 MBq) was added to 200 µL human serum and incubated at 37 °C. Aliquots of 15 µL were taken after 5, 10, 15, 30, 45, 60, 120 and 180 min and quenched in 100 µL of 10% aqueous TFA. The samples were centrifuged (20000 × g, 2 min), and the supernatants were analysed by radio-HPLC (Chromolith RP-18e, 100 × 4.6 mm, 4 mL/min, 0–1 min 25% CH3CN (0.1% TFA) in water (0.1% TFA), 1–6 min 25–60%, 6–7 min 60–100%, 7–8 min 100%).
# [2] = Biodistribution in healthy mice; assay type: in vivo, mouse; settings: for kidney uptake: at 30 and 90 min p.i.
# Experimental: Biodistribution studies were conducted using female NMRI outbred mice (HsdWin:NMRI) purchased from Envigo (Horst, The Netherlands). Mice were kept in groups of four to five animals in individually ventilated cages in a twelve hours dark/light cycle with unlimited access to water and standard chow. At the age of eight to nine weeks six animals per radiotracer were injected with 2–4 MBq of the respective radiotracer under isoflurane anesthesia. Mice were sacrificed by cervical dislocation 30 or 90 min p.i. of the radiotracer. Blood as well as the organs/tissues lung, liver, kidneys, heart, spleen, brain, muscle, intestines, gall bladder and bones were harvested and analysed in the γ-counter. Samples were weighed and radioactivity in different tissues was calculated as percentage of the total injected dose per gram tissue (%ID/g).
# [3] = Binding to human plasma proteins by gel filtration; assay type: in vitro ADME; settings: 37 °C, read-out: Free fraction in plasma
# Experimental: The binding of ^18F-labelled compounds to plasma proteins was determined using gel filtration columns(illustra™ MicroSpin™ G-50 Columns, GE Healthcare Life Sciences, Freiburg). An aliquot of the radiotracer (approx. 100 kBq) was added to 200 µL of saline, and 100 µL of human plasma, respectively. Both samples were incubated at 37 °C for 10 min. MicroSpin™ columns were prepared according to the user instruction. Then 25 µL of the incubated radiotracer were given onto the columns and the devices were centrifuged (2000 × g, 2 min). Eluate and solid phase were analysed in the γ-counter (Wallac Wizard). The percentage of unbound radioligand was calculated as %free=cpmsolidphase/cpmsolidphase+cpmeluate . The sample in saline was used as control.
# MCF-7-Y1 tumour slices = experiment: In-vitro autoradiography on MCF-7-Y1 tumour xenograft slices; assay type: binding, human; settings: blocking with 1 µM and 10 µM BIBP3226
# Experimental: MCF-7-Y1 tumour bearing mice were sacrificed by cervical dislocation under deep isoflurane anesthesia and tumours were excised and subsequently frozen in a hexane/dry ice bath (−70 °C). MCF-7-Y1 tumour slices (14 µm) were prepared on a cryostat microtome HM 500 O (Microm, Walldorf) and thaw-mounted on Histobond® adhesive glass slides (Marienfeld, Lauda-Königshofen).
# For autoradiography studies slides were thawed and pre-incubated for 15 min in incubation buffer (50 mM TRIS HCl, pH 7.4, containing 120 mM NaCl, 5 mM MgCl2,) at room temperature. Thereafter, 800 µL of incubation buffer, containing 0.1 MBq of the respective radiotracer were pipetted on the slide and incubated at room temperature for 60 min. For displacement studies BIBP3226 (1 µM or 10 µM) was added to the incubation buffer before pipetting on the slides. Afterwards slides were washed by placing in ice cold incubation buffer (3 × 2 min) followed by short dipping in ice cold distilled water. Slides were carefully dried in a stream of warm air and finally placed on an autoradiography film (Fuji Imaging Plate BAS-IP SR 2025 E, Fujifilm, Düsseldorf) overnight prior to readout (25 µm resolution) on the autoradiograph (HD-CR-35 Bio, Raytest, Straubenhardt) and analysis with the software AIDA (Raytest). Additional sections were stained with hematoxylin and eosin (H&E) for comparison with the autoradiography images.
# MCF-7-Y1 tumours = experiment: Small animal PET in MCF-7-Y1 xenografted nude mice; assay type: in vivo, mouse; settings: 45–60 min p.i., blocking by co-injection of BIBP3226 1 mg/kg
# Experimental: For the NPY Y1R xenograft model, female NMRI nude mice (HsdCpb:NMRI-Foxn1^nu) were purchased from Envigo (Horst, The Netherlands) at the age of three weeks. Mice were kept in groups of four to five animals in individually ventilated cages in a twelve hours dark/light cycle with unlimited access to water and standard chow. At the age of nine to ten weeks one 17β-estradiol pellet per animal (0.72 mg per pellet, 3 mm diameter) with a 60-day release time (Innovative Research of America, Sarasota, FL, USA) was subcutaneously implanted on the back under isoflurane anesthesia. After three days, approximately 10^6 MCF-7-Y1 tumour cells (in 50 µL PBS) were mixed with Matrigel (50 µL, BD Biosciences, Heidelberg) and then injected subcutaneously at the back. Tumour diameters and weight of the animals were recorded five times a week. Imaging studies were performed four weeks after inoculation of the cells.
# Small animal PET scans were performed on an Inveon™ microPET scanner (Siemens Healthcare, Erlangen) under isoflurane anesthesia (3%). Tumour bearing mice (26–35 g, n = 2–3 for each radioligand) were intravenously injected into the tail vein with the respective radiotracer (1.5–4.2 MBq in about 100 µL of saline) under isoflurane anesthesia (3–4%). Static images were acquired for 15 min starting 45 min p.i. of the radiotracer. For displacement studies, the same mice were co-injected with the radiotracer ([^18F]12 and [^18F]13 only) and BIBP3226 (1 mg/kg). Images were corrected for decay and attenuation and MAP (iterative maximum a posteriori) images were reconstructed using the built-in software of the PET scanner. Evaluation of the MAP images was conducted using the software PMOD (version 3.6, PMOD Technologies LLC, Zürich). Regions of interests (ROIs) were drawn and radioactivity concentration within these regions was obtained from the mean values and calculated as percentage of the total injected dose per gram tissue (% ID/g).
# [4] = Octanol-water distribution coefficient logD7.4, shake flask method; assay type: physicochemical; settings: 1-octanol/PBS, pH 7.4, PBS/1-octanol, read-out: logD7.4 experimental
# Experimental: The lipophilicity of the radioligands was determined by the distribution coefficient logD7.4. The respective radioligand (10 µL, about 25 kBq) was added to a mixture of PBS (500 µL) and 1-octanol (500 µL) and the emulsion was vortexed for 1 min. After centrifugation 3 × 100 µL were taken of each layer and analysed by a γ-counter. The partition coefficient was calculated as logD7.4=log(cpmoctanol/cpmPBS) . Data were expressed as mean values ± SD from three experiments.
smiles,measurement,setting,value
"N/C(=N/C(=O)NCc1cn([C@@H]2OC(C[18F])[C@@H](O)C(O)C2O)nn1)NCCC[C@@H](NC(=O)C(c1ccccc1)c1ccccc1)C(=O)NCc1ccc(O)cc1 (stereo partly drawn) [[^18F]11, (2R)‐5‐{[(1Z)‐Amino({[({1‐[(2R,5S)‐6‐([^18F]fluoromethyl)‐3,4,5‐trihydroxyoxan‐2‐yl]‐1H‐1,2,3‐triazol‐4‐yl}methyl)carbamoyl]imino})methyl]amino}‐2‐(2,2‐diphenylacetamido)‐N‐[(4‐hydroxyphenyl)-methyl]pentanamide]",Stability over 3 h in human serum,[1],>99%
same,uptake in the gall bladder,[2]; after 90 min,up to 600 %ID/g
same,kidney uptake,[2],less than 5 %ID/g
same,fraction unbound at 10 min,[3],0.42
same,specific binding to MCF-7-Y1 tumour slices (autoradiography),MCF-7-Y1 tumour slices,very low specific binding
same,tumour visualisation / specific tumour accumulation in PET,MCF-7-Y1 tumours,visualision of the tumour with the fluoroglycosylated radiotracer [^18F]11 failed
same,logD,[4],0.78 ± 0.005
"N/C(=N/C(=O)NCc1cn(CCOCCOCCOCC[18F])nn1)NCCC[C@@H](NC(=O)C(c1ccccc1)c1ccccc1)C(=O)NCc1ccc(O)cc1 [[^18F]13, (2R)‐5‐{[(1Z)‐Amino[({[1‐(2‐{2‐[2‐(2‐[^18F]fluoroethoxy)ethoxy]ethoxy}ethyl)‐1H‐1,2,3‐triazol‐4‐yl]methyl}carbamoyl)imino]methyl]amino}‐2‐(2,2‐diphenylacetamido)‐N‐[(4‐hydroxyphenyl)-methyl]pentanamide]",Stability over 3 h in human serum,[1],>99%
same,kidney uptake,[2],less than 5 %ID/g
same,fraction unbound at 10 min,[3],0.37
same,specific binding to MCF-7-Y1 tumour slices (autoradiography),MCF-7-Y1 tumour slices,marked specific binding
same,tumour visualisation / specific tumour accumulation in PET,MCF-7-Y1 tumours,displaceable and thus specific Y1R-mediated tumour acculuation in vivo; also recorded: enhanced and specific tumour uptake
same,logD,[4],1.49 ± 0.003
